From US11597708B2, “Inhibitors of heat shock factors and uses thereof” (HSF Pharmaceuticals SA, priority 2016, dated 2023)
pIC50: −log10 of the molar value.

How the values were obtained:
[1] = biological target: T1, HSF1 (Homo sapiens, UniProt Q00613); assay: Z74 cell-based reporter assay: heat-induced RLuc expression controlled by endogenous HSF1; details: Z74 cells
T1 construct: functionally linked to an hsp70b promoter and therefore controlled by endogenous HSF1; endogenous in cells; host or cells: HeLa cells / HeLa-derived cell line Z74
T1 sequence (Q00613 1-529): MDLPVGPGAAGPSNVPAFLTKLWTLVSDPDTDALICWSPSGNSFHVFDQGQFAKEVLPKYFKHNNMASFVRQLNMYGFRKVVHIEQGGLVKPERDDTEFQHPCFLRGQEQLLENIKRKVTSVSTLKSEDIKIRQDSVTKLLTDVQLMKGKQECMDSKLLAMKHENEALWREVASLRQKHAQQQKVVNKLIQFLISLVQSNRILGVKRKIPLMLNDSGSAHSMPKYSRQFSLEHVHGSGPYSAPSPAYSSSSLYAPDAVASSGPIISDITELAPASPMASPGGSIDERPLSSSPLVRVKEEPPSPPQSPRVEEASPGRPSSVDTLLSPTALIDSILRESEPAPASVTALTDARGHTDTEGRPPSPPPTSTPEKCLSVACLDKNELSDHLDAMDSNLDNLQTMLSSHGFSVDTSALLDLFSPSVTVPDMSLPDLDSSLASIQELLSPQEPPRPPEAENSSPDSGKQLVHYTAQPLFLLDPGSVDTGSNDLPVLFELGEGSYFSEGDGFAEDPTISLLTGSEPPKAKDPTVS
From the text: For screening this sublibrary, a cell-based assay was developed. We opted for a cell-based assay, because a cell-free assay would have had to be a DNA-binding assay. Such an assay would have limited discovery to molecules capable of interfering with the DNA-binding function of HSF1. This was thought to be too narrow a focus, considering that three of the four cavities identified in the HSF1 DNA-binding domain are not near the DNA interaction region. A straightforward cell-based assay, in which a HSF1-responsive gene would be assayed, was considered likely to be over-inclusive. Compounds would be scored as hits that inhibit any factor that is involved in HSF1 activation or prevents HSF1 deactivation. These factors include protein kinases, activators of protein phosphatases, factors affecting HSF1 mRNA stability, HSP90, HDAC6, etc. For developing a more discriminating cell-based assay, advantage was taken of the modular nature of HSF1. […] The cell-based assay developed (see below for the particular format employed) compared transactivation by wild type HSF1 and chimeric HSF1 in cells exposed to an HSF1-activating heat treatment in the presence of a sublibrary compound. A compound was scored as a hit, if it inhibited the activity of wild type HSF1 but not of chimeric HSF1.
The cell-based assay made use of HeLa-derived cell line Z74 that stably contains a gene for chimeric transcription factor LexA-(human) HSF1 under the control of a CMV early promoter, a firefly luciferase (flue) gene driven by a promoter responsive to the latter chimeric transcription factor and a Renilla luciferase (rluc) gene functionally linked to an hsp70b promoter and therefore controlled by endogenous HSF1 (FIG. 1A). As is shown in FIGS. 1B & C, the reporter genes responded similarly to heat dose, i.e., their activation depended on both duration of heat exposure and temperature of the exposure. […] Depletion of HSF1 (and LexA-HSF1) by siRNA supported the notion that this stress regulation is mediated by HSF1 (and LexA-HSF1). Therefore, the Z74 line was well suited for use in a screening assay aimed at discovering molecules that inhibit heat-induced HSF1 activity through interaction with the transcription factor's DNA-binding domain.
The compounds of the afore-mentioned biased sublibrary were screened in cell line Z74 at 12.5 and 25 μM concentrations. Typically, Z74 cultures in 96-well plates were exposed to compound or vehicle for 2 h, heat-treated at 43.0° C. for 30 min, and incubated further for 6 h at 37° C. to allow for accumulation of the luciferases. RLuc and FLuc activities were determined, typically using the Dual-Glo® Luciferase Assay System (Promega Corp., Madison, Wis.), and reading luciferase light counts in a Wallac Microbeta Trilux-1450 Luminometer (PerkinElmer, Waltham, Mass.). IHSF 001 was one of two library compounds that inhibited RLuc expression but not FLuc expression in heat-treated Z74 cells (Table 1; FIG. 2A). Therefore, IHSF 001 is an inhibitor of HSF1 function that specifically acts through the HSF1 DNA-binding domain. […] A corroborating experiment utilized a cell line containing an hsp70b promoter-driven fluc gene. […] IHSF 001 is (E)-ethyl 4-oxo-4-(thiazol-2-ylamino)but-2-enoate. The compound can be obtained from commercial sources (e.g., AKE-PB-90340538, Akos).

[2] = biological target: T2, HSE DNA-binding activity (Homo sapiens, UniProt Q00613); assay: EMSA using extracts of heat-treated HeLa cells, in the presence of IHSF; type: biochemical; details: extracts of HeLa cells heat-treated at 43° C. for 30 min; concentrations as high as about 0.5 mM
T2 construct: functionally linked to an hsp70b promoter and therefore controlled by endogenous HSF1; endogenous in cells; host or cells: HeLa cells / HeLa-derived cell line Z74
T2 sequence (Q00613 1-529): T1 sequence (Q00613 1-529)
Experimental: Electrophoretic mobility shift assays (EMSA) using a radiolabeled HSE DNA probe were carried out to assess HSF1 DNA-binding activity in extracts of heat-treated (43° C./30 min) HeLa cells that had been exposed to different concentrations of compounds 058 or 115 (FIG. 3A, top panels). […] HSF1 degradation correlated well with the observed decrease in DNA-binding activity. Therefore, HSF1 degradation provides a sufficient explanation for the reduced HSE DNA-binding activity in cells treated with IHSF 058. […] EMSA were also carried out using extracts of HeLa cells that had been heat-treated at 43° C. for 30 min.

## CCOC(=O)/C=C/C(=O)Nc1ncc(-c2ccccc2C)s1 [IHSF 059, (E)-3-(5-o-Tolyl-thiazol-2-ylcarbamoyl)-acrylic acid ethyl ester]
[1]; inhibition of HSF1 activity [RLuc]
  pIC50: 4.83
[1]; 12.5 μM IHSF, negative values marked *: compound enhanced rLuc activity, read-out: Inhibition of HSF1 activity at 12.5 μM IHSF [RLuc] (%)
  inhibition at 12.5 µM: 45%
[1]; 25 μM IHSF, 2 h exposure, 43° C. 30 min, 6 h at 37° C., read-out: Inhibition of HSF1 activity at 25 μM IHSF [RLuc] (%)
  inhibition at 25 µM: 72%
[2]
  HSE DNA-binding activity (EMSA) in the presence of IHSF: no reduction
